Like-named read-outs stand apart in the source and are kept apart here.
Tests used:
DLD-1 cells = test: Inhibition of proliferation, DLD-1 BRCA2 wt control (Cell Titre Glo 3D); type: cell-based; conditions: for IC50: Homo sapiens
Procedure, shortened: (§1)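 DLD-1 BRCA2−/− and parental DLD-1 cells exposed to 10-point dose range (10 μM to 0.51 nM, 3-fold) in RPMI/10% FBS at 37 °C, with medium and compound replenished on day 6. Viability by Cell Titre Glo 3D luminescence at day 7 (DLD-1) or day 12 (BRCA2−/−); IC50 as concentration halving maximum signal.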

DLD-1 BRCA2−/− cells = test: Homologous recombination synthetic lethal inhibition of proliferation, DLD-1 BRCA2-/- (Cell Titre Glo 3D); type: cell-based; conditions: for IC50: Homo sapiens
Procedure, shortened: as §1

[1] = DLD-1, second proliferation column, DLD-1 BRCA2 wt control, read-out: POLQ PD Prolif Lumin (converted)
[2] = DLD-1, first proliferation column, DLD-1 BRCA2-/-, read-out: POLQ PD Prolif Lumin (converted)
[3] = DLD-1, DLD1 BRCA2 wt, mean, read-out: POLQ PD Prolif Lumin DLD1 mean pIC50 (converted)
[4] = DLD-1, DLD-1 BRCA2 −/−, mean, read-out: POLQ PD Prolif Lumin BRCA2 −/− mean pIC50 (converted)

Compound | IC50 (DLD-1 cells; [1]) [µM] | IC50 (DLD-1 cells; [3]) [µM] | IC50 (DLD-1 BRCA2−/− cells; [2]) [nM] | IC50 (DLD-1 BRCA2−/− cells; [4]) [nM] | further results
Cc1ccnc(Cn2c(-c3ccc(OCCCN4CC[C@@H](O)C4)cc3Cl)nc3c(OC4(C)CC4)ncnc32)c1 [Example T592, (R)-1-(3-(3-chloro-4-(6-(1-methylcyclopropoxy)-9-((4-methylpyridin-2-yl)methyl)-9H-purin-8-yl)phenoxy)propyl)pyrrolidin-3-ol] | > 10 |  | 200 |  | 
Cc1ccnc(Cn2c(-c3cccc(OCCCN4CC[C@@H](O)C4)c3Cl)nc3c(OC4(C)CC4)ncnc32)c1 [Example T593, (R)-1-(3-(2-chloro-3-(6-(1-methylcyclopropoxy)-9-((4-methylpyridin-2-yl)methyl)-9H-purin-8-yl)phenoxy)propyl)pyrrolidin-3-ol] | > 10 |  | 251 |  | 
Cc1ccnc(Cn2c(-c3ccc(OCCN4CCNC[C@@H]4C)cc3Cl)nc3c(OC4(C)CC4)ncnc32)c1 [Example T594, (S)-8-(2-chloro-4-(2-(2-methylpiperazin-1-yl)ethoxy)phenyl)-6-(1-methylcyclopropoxy)-9-((4-methylpyridin-2-yl)methyl)-9H-purine] | 2.51 |  | 501 |  | 
Cc1cc(C)nc(Cn2c(-c3ccc(OCCN4CCNCC4)cc3Cl)nc3c(OC4(C)CC4)ncnc32)c1 [Example T595, 8-(2-chloro-4-(2-(piperazin-1-yl)ethoxy)phenyl)-9-((4,6-dimethylpyridin-2-yl)methyl)-6-(1-methylcyclopropoxy)-9H-purine] | > 10 |  | 1260 |  | 
Cc1cnc(Cn2c(-c3ccc(OCCN4CCNCC4)cc3Cl)nc3c(OC4(C)CC4)ncnc32)cc1C [Example T596, 8-(2-chloro-4-(2-(piperazin-1-yl)ethoxy)phenyl)-9-((4,5-dimethylpyridin-2-yl)methyl)-6-(1-methylcyclopropoxy)-9H-purine] | > 10 |  | 5010 |  | 
Cc1ccnc(Cn2c(-c3ccc(OCCN4CCNCC4)cc3Cl)nc3c(OC4(C)CC4)ncnc32)c1C [Example T597, 8-(2-chloro-4-(2-(piperazin-1-yl)ethoxy)phenyl)-9-((3,4-dimethylpyridin-2-yl)methyl)-6-(1-methylcyclopropoxy)-9H-purine] | 6.31 |  | 2510 |  | 
Cc1ccnc(Cn2c(-c3ccc(CC(=O)N4C[C@@H](C)N[C@@H](C)C4)cc3Cl)nc3c(OC4(C)CC4)ncnc32)c1 [Example T606, 2-(3-chloro-4-(6-(1-methylcyclopropoxy)-9-((4-methylpyridin-2-yl)methyl)-9H-purin-8-yl)phenyl)-1-((3R,5S)-3,5-dimethylpiperazin-1-yl)ethan-1-one] | > 10 |  | 794 |  | 
Cc1ccnc(Cn2c(-c3ccc(OCCN4CCNCC4)cc3Cl)nc3c(OC(C)(C)C)cccc32)c1 [Example T609, 4-(tert-butoxy)-2-(2-chloro-4-(2-(piperazin-1-yl)ethoxy)phenyl)-1-((4-methylpyridin-2-yl)methyl)-1H-benzo[d]imidazole] | > 10 |  | 1580 |  | 
COCc1cc(OCCN2CCN(C)CC2)ccc1-c1nc2c(OC3(C)CC3)ncnc2n1Cc1ccccc1 [Example T612, 9-benzyl-8-(2-(methoxymethyl)-4-(2-(4-methylpiperazin-1-yl)ethoxy)phenyl)-6-(1-methylcyclopropoxy)-9H-purine] | > 10 |  | 1000 |  | 
COc1ccc(Cl)cc1Cn1c(-c2cccc(O[C@H]3CC[C@H](C(=O)O)CC3)c2Cl)nc2c(OC3(C)CC3)ncnc21 [Example U38, (1r,4r)-4-(2-chloro-3-(9-(5-chloro-2-methoxybenzyl)-6-(1-methylcyclopropoxy)-9H-purin-8-yl)phenoxy)cyclohexane-1-carboxylic acid] |  |  |  |  | POLQ PD Prolif Lumin DLD1 mean pIC50 (DLD-1 cells; DLD1 BRCA2 wt, mean): 5.1; POLQ PD Prolif Lumin BRCA2 −/− mean pIC50 (DLD-1 BRCA2−/− cells; DLD-1 BRCA2 −/−, mean): 7.5

The next lines start with results.

IC50 (DLD-1 cells; [1]) [µM] | IC50 (DLD-1 cells; [3]) [µM] | Compound | IC50 (DLD-1 BRCA2−/− cells; [2]) [nM] | IC50 (DLD-1 BRCA2−/− cells; [4]) [nM] | further results
 | > 6.31 | C[C@@H](CCOc1ccc(-c2nc3c(OC4(C)CC4)ncnc3n2Cc2cccc(C#N)c2)c(Cl)c1)C(=O)O [Example U8, (S)-4-(3-chloro-4-(9-(3-cyanobenzyl)-6-(1-methylcyclopropoxy)-9H-purin-8-yl)phenoxy)-2-methylbutanoic acid] |  | 398 | 
 | > 10 | C[C@H](CCOc1ccc(-c2nc3c(OC4(C)CC4)ncnc3n2Cc2cc(Cl)ccc2F)c(Cl)c1)C(=O)O [Example U10, (R)-4-(3-chloro-4-(9-(5-chloro-2-fluorobenzyl)-6-(1-methylcyclopropoxy)-9H-purin-8-yl)phenoxy)-2-methylbutanoic acid] |  | 63.1 | 
 | > 6.31 | C[C@@H](CCOc1ccc(-c2nc3c(OC4(C)CC4)ncnc3n2Cc2cc(Cl)ccc2F)c(Cl)c1)C(=O)O [Example U11, (S)-4-(3-chloro-4-(9-(5-chloro-2-fluorobenzyl)-6-(1-methylcyclopropoxy)-9H-purin-8-yl)phenoxy)-2-methylbutanoic acid] |  | 50.1 | 
 | > 10 | CC1(Oc2ncnc3c2nc(-c2cccc(OCCOCC(=O)O)c2Cl)n3Cc2cc(Cl)ccc2F)CC1 [Example U22, 2-(2-(2-chloro-3-(9-(5-chloro-2-fluorobenzyl)-6-(1-methylcyclopropoxy)-9H-purin-8-yl)phenoxy)ethoxy)acetic acid] |  | 50.1 | 
 | > 10 | C[C@@H](CCOc1cccc(-c2nc3c(OC4(C)CC4)ncnc3n2Cc2cc(Cl)ccc2F)c1Cl)C(=O)O [Example U24, (S)-4-(2-chloro-3-(9-(5-chloro-2-fluorobenzyl)-6-(1-methylcyclopropoxy)-9H-purin-8-yl)phenoxy)-2-methylbutanoic acid] |  | 12.6 | 
 | > 10 | C[C@H](CCOc1cccc(-c2nc3c(OC4(C)CC4)ncnc3n2Cc2cc(Cl)ccc2F)c1Cl)C(=O)O [Example U26, (R)-4-(2-chloro-3-(9-(5-chloro-2-fluorobenzyl)-6-(1-methylcyclopropoxy)-9H-purin-8-yl)phenoxy)-2-methylbutanoic acid] |  | 25.1 | 
 | > 10 | CC(C)(CCOc1cccc(-c2nc3c(OC4(C)CC4)ncnc3n2Cc2cccc(Cl)c2)c1Cl)CC(=O)O [Example U28, 5-(2-chloro-3-(9-(3-chlorobenzyl)-6-(1-methylcyclopropoxy)-9H-purin-8-yl)phenoxy)-3,3-dimethylpentanoic acid] |  | 79.4 | 
 | > 10 | COc1ccc(Cl)cc1Cn1c(-c2cccc(OCCCOCC(=O)O)c2Cl)nc2c(OC3(C)CC3)ncnc21 [Example U30, 2-(3-(2-chloro-3-(9-(5-chloro-2-methoxybenzyl)-6-(1-methylcyclopropoxy)-9H-purin-8-yl)phenoxy)propoxy)acetic acid] |  | 20 | 
 | > 7.94 | COc1ccc(Cl)cc1Cn1c(-c2ccc(OCCC(C)(C)C(=O)O)cc2Cl)nc2c(OC3(C)CC3)ncnc21 [Example U31, 4-(3-chloro-4-(9-(5-chloro-2-methoxybenzyl)-6-(1-methylcyclopropoxy)-9H-purin-8-yl)phenoxy)-2,2-dimethylbutanoic acid] |  | 50.1 | 
 | > 10 | CC1(Oc2ncnc3c2nc(-c2cc(F)cc(OCCC(=O)O)c2Cl)n3Cc2cccc(Cl)c2)CC1 [Example U39, 3-(2-chloro-3-(9-(3-chlorobenzyl)-6-(1-methylcyclopropoxy)-9H-purin-8-yl)-5-fluorophenoxy)propanoic acid] |  | 12.6 | 

Reference: US20250195530A1, “POLQ INHIBITORS” (ASTRAZENECA AB, priority 2022, published 2025)
